The record followed here is US20090035295A1, “Screening Method, Process for Purifying of Non-Diffusible A-Beta Oligomers, Selective Antibodies Against Said Non-Diffusible a-Beta Oligomers and a Process for Manufacturing of Said Antibodies” (Abbott GmgH & Co. KG, priority 2005, published 2009).

Series [1] has as its target T1, Aβ(1-42) globulomer formation (Homo sapiens, UniProt P05067).
T1 construct: Aβ(1-42) synthetic peptide (Cat. No. H-1368, Bachem, Switzerland); purchased Bachem H-1368; host or cells: chemical synthesis; oligomerised in house (HFIP, DMSO, 0.2% SDS or 0.5% fatty acid, dilution)
Put plainly: Induction of Aβ(1-42) globulomer formation by fatty acids replacing SDS (SDS-PAGE). In kind it is biochemical. The note with it: fatty acid in place of SDS, neutral pH. On the procedure:
Lanes: (1) control without inducing agent, (2) positive control with 0.2% SDS, (3) 0.5% lauric acid (12:0), (4) 0.5% oleic acid (18:1), (5) linoleic acid […], (6) eicosapentanoic acid (20:5), (7) docosatetranoic acid (22:4), (8) docosahexanoic acid (22:6), (9) positive control with 0.2% SDS, (10) 1% arachidonic acid. Yields of Aβ(1-42) globulomer (g, indicated with arrowheads) differ between various fatty acids;
A solution of Aβ(1-42) globulomers was prepared as described in example 5a of WO2004/067561. Briefly, Aβ(1-42) synthetic peptide (Cat. No. H-1368, Bachem, Switzerland) was suspended in 1,1,1,3,3,3-hexafluoro-2-propanol (HFIP) at […] and incubated for complete solubilization under shaking at 37° C. for 1.5 h. HFIP was removed by evaporation in a SpeedVac and Aβ(1-42) resuspended at a concentration of 5 mM in dimethyl sulfoxide (DMSO) and 20 sec sonicated. The HFIP pretreated Aβ(1-42) was diluted in phosphate buffered solution (PBS) (20 mM NaH2PO4, 140 mM NaCl, pH 7.4) to 400 μM and 1/10 volume 2% SDS (in H2O) added (final concentration of 0.2% sodium dodecyl sulfate (SDS)).

Series [2] can be described thus: In vitro stability in PBS at different temperatures, SDS-PAGE. In kind it is physicochemical. As to the method: The sample at 0.5 mg/ml in 20 mM NaH2PO4; 140 mM NaCl; pH 7.4 was incubated at room temperature and 37° C. for 1 day and 4 days, respectively. An aliquot of 10 μl of the samples was analyzed by SDS-PAGE.
An aliquot of 100 μl of each of the samples was analyzed by SDS-PAGE.

The subject of another series is hippocampal neurons. Put plainly: Binding of Aβ forms to cultured hippocampal neurons (immunofluorescence). In kind it is cell-based, rat. On the procedure: (§1) Hippocampal cells from rat brain (QBM Cell Science, Canada) were cultured in 24-well plates on poly-L-lysine coated coverslips (BD Biosciences, Germany) in Neurobasal medium with B27 supplement (Invitrogen, Germany) at 37° C., 5% 002. To some cultures mitosis inhibitors (35 μg/ml uridine, 15 μg/ml 5-fluoro-2′-deoxyuridine) were added at DIV6 to prevent an overgrowing with glia. Unless otherwise stated hippocampal cells were used at DIV13-14.
Cells were rinsed three times with 1 ml medium and fixed with 3.7% buffered formaldehdye (Accustain, Sigma, Germany). Unspecific binding sites were blocked by incubation with 10% normal goat serum in PBS (pH 7.4) for 90 min at room temperature to which 0.1% Triton X-100 was added in the case of intracellular counterstaining. […] After each antibody incubation cells were washed three times with PBS and finally mounted in ProLong antifade reagent (Molecular Probes, Germany).

In another series the test system is glia. Put plainly: Binding of Aβ(1-42) globulomer to glia in hippocampal cultures. Format: cell-based, rat. The conditions noted are these: hippocampal preparation, GFAP positive cells. On the procedure:
as §1, with “DIV13-14. When Aβ-forms were added, 750 μL fresh 37° C. warm medium containing the Aβ-forms were exchanged of the total 1 ml. Incubation took place for 15 min at 37° C., 5% CO2.” for “DIV13-14.”
Cells were rinsed three times with 1 ml medium and fixed with 3.7% buffered formaldehdye (Accustain, Sigma, Germany). Unspecific binding sites were blocked by incubation with 10% normal goat serum in PBS (pH 7.4) for 90 min at room temperature to which 0.1% Triton X-100 was added in the case of intracellular counterstaining. Primary antibodies (anti Aβ 6E10 (Signet Laboratories, USA), 1:2000; anti GFAP (Dako Cytomation, Germany), 1:2500; anti MAP2 (Chemicon International, Germany), 1:1000) and secondary antibodies (Alexa 488, 1:500; Alexa 635, 1:500; Molecular Probes, Germany) were subsequently incubated for 2 h at room temperature in 10% normal goat serum in PBS (pH 7.4). […]

In a further series the test system is neuronal cell-lines. Description: Binding of Aβ(1-42) globulomer to neuronal cell-lines. Format: cell-based. The note with it: data not shown.
A further series concerns long-term potentiation. Put plainly: Long-term potentiation in rat brain slices (CA1 field potentials). Format: cell-based. On the procedure: Slices were prepared from male Sprague-Dawley rats (7-8 weeks old). Isolated hemispheres were trimmed and then cut using a vibratome. Slices ([…]) were directly transferred to an interface recording chamber and continuously perfused at 33° C. with oxygenated artificial CSF (aCSF: 118 mM NaCl, 1.24 mM KH2PO4, 10 mM glucose, 2 mM MgSO4, 2.5 mM CaCl2, 5 mM KCl, 25.6 mM NaHCO3) at a flow rate of 1.8 ml/min. Freshly prepared slices were allowed to equilibrate for at least one hour before recording. Field potentials were obtained from stratum radiatum of CA1 using glass microelectrodes (0.8-1.2 MΩ) filled with aCSF. The Schaffer collateral was stimulated by a bipolar tungsten electrode (0.5 MO, Science Products GmbH, Germany). Constant voltage biphasic pulses (0.1 ms/phase; range 1-5 V) were applied once per minute at an intensity yielding 30% of the fEPSP maximum. LTP was induced by 2 trains of 100 Hz (1 sec/train with 10 sec intertrain intervall) using the same intensity and pulse length. […] Signals were digitized by a Power CED 1401 and analyzed using the software Signal 2.14 (Cambridge Electronic Design Ltd., Cambridge). For statistical comparison data were analyzed by 2-way repeated measures ANOVA using SAS.

A short description of series [3]: Intracranial injection in rats: in vivo binding and tissue penetration. The note with it: rat. As to the method:
For electrophysiological and histological studies, male Sprague-Dawley rats were obtained from Janvier (France) at an age of about 8 weeks.
The rats (260-430 g) were anesthetized with pentobarbital (60 mg/kg i.p.; Narcoren) and fixed in a stereotaxic apparatus according to Paxinos and Watson^36. […] A total volume of 4.3 μL was infused by a 10 μL Hamilton syringe attached to a motorized micropump (WPI, Germany) during 5 min with the cannula being left in place for additional 2 min. […] The infusion was applied via a 10 μL Hamilton syringe during 5 min with the cannula being left in place for additional 5 min.
Therefore, rats were deeply anesthetized with Narcoren. […] Then, the rats were transcardially perfused with 10 mM PBS (pH 7.2) for 5 min, followed by 4% paraformaldehyde (PFA) in PBS. The brains were removed, postfixed overnight in 4% PFA in PBS containing 30% sucrose and transferred into 30% sucrose in PBS for cryoprotection.
A Cy3-labeled donkey anti-mouse antibody (Jackson Laboratories) was used for fluorescence labelling for 1 h. Between the steps and at the end, sections were thoroughly washed in TBST three times for 5 min, after which they were mounted onto glass slides, air-dried and cover-slipped with Vectashield hardest mounting medium containing DAPI (Vector Laboratories) to visualize cell nuclei. All incubations were performed at room temperature. Some sections were also stained with 0.05% thioflavine S (Sigma, Germany) in 50% ethanol for 10 min, followed by two rinses of 100% ethanol for 5 min before embedding in Vectashield. Analysis of labelling was performed under a confocal fluorescence microscope (Zeiss LSM 510 Meta, Germany).

A further series has as its system APP/Lo mice. Put plainly: Novel object recognition task after active immunization of APP/Lo mice. Format: in vivo, mouse. The conditions noted are these: for RI compared with mice treated with Aβ(1-42) monomer or vehicle: P<0.01, ANOVA, post-hoc Holm-Sidak t-test; for Short term memory for objects: active immunization. An excerpt:
APP [V717I] C57BI×FVB female mice (n=36; 6 weeks old) were used for this study (Moechars et al., 1999). All mice were housed and bred in the animal housing facilities of the Catholic University Leuven, Campus Gasthuisberg, in accordance with the Belgian ethical law on housing, breeding and handling laboratory animals.
They were genotyped by polymerase chain reaction (PCR) at the age of 3 weeks and were double checked by a second PCR at the onset of the study. All mice were blind randomised, age-matched and allocated randomly to a treatment. Animals were re-caged by treatment group one day before the onset of the study in order to allow them to familiarize to the new cage context. […] The food was stored under dry and cool conditions in a well-ventilated storage room. The amount of water and food was checked daily, supplied when necessary and standard refreshed twice a week. Mice were housed under a reversed day-night rhythm: 14 hours light/10 hours darkness, light starting at 7 p.m., in standard metal cages type RVS T2 (area of 540 cm^2) equipped with solid floors and layer of bedding litter.
The first injection contained 50% (v/v) complete Freund's Adjuvants (Difco Laboratories, Detroit, Mich., USA, ref no 263810) while the boost injections contained 50% (v/v) incomplete Freund's Adjuvant (Difco Laboratories, Detroit, Mich., USA, ref no 263910). Administration of compounds was performed every 3 weeks during 3 months (at week 0/3/6/9/12). • Novel object recognition task in immunized mice:
After the last injection all mice underwent a novel objection recognition task. The protocol used followed the method as described by Dewachter I. et al., Journal of Neuroscience, 2002, 22(9):3445-3453. Mice were familiarized for one hour to a Plexiglas open-field box (52×52×40 cm) with black vertical walls and a translucent floor, dimly illuminated by a lamp placed underneath the box. The next day the animals were placed in the same box and submitted to a 10 minutes acquisition trial. During this trial mice were placed individually in the open field in the presence of object A (blue ball or red cube, similar sized of ±4 cm), and the duration (timeAA) and the frequency (FreqAA) exploring object A (when the animals snout was directed towards the object at a distance of <1 cm and the mice were actively sniffing in the direction of the object) was recorded by a computerized system (Ethovision, Noldus information Technology, Wageningen, the Netherlands). During a 10 minutes retention trial (second trial) performed 3 hours later, a novel object (object B, red cube or blue ball) was placed together with the familiar object (object A) into the open field. (FreqA and FreqB and TimeA and TimeB, respectively).
The recognition index (RI), defined as the ratio of the duration in which the novel object was explored over the duration in which both objects were explored [TimeB/(TimeA+TimeB)×100], was used to measure non-spatial memory. The duration and frequency object A was explored during the acquisition trial (TimeAA and FreqAA) was used to measure curiosity.

Entries after “also recorded” stand apart in the source; their conditions may differ. No end group written: not given here.

T1 sequence (P05067 672-713 limits assumed): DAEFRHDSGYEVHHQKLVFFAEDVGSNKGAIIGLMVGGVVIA

As for `CCCCCCCC/C=C\CCCCCCCC(=O)O` [oleic acid], the “Induction of the characteristic 38/48 kDa Aβ(1-42) globulomer” value (from here on “Induction”) in series [1] is “induced”.
In the case of `CCCCC/C=C\C/C=C\C/C=C\C/C=C\CCCC(=O)O` [arachidonic acid], the “Induction” value in series [1] is given as “induced”.
For the molecule “Aβ(1-42) globulomer: soluble, globular, non-covalent association of about 12 Aβ(1-42) peptides generated from synthetic peptide with SDS”, the “Stable in PBS” value in series [2] (PBS, ambient temperature and 37° C.) is “at least 4 days”. The “Globulomer structure maintained without disassembly or further polymerization to fibrils” value in series [2] (in vitro, physiological temperature (37° C.)) is “up to 4 days”. The “Binding to hippocampal neurons” value with hippocampal neurons (200 nM based on monomer (17 nM globulomer), 15 min, 37° C.) was “strong binding”. Also, the “Hippocampal neurons binding globulomer” value in the series on hippocampal neurons (DIV8) is listed as −1%. In the series on glia, the Binding to glia entry is “did not bind”. In the series with neuronal cell-lines, the “Binding to neuronal cell-lines” value is recorded as “negative”. Further, the “Time after tetanization at which potentiation was significantly impaired (as early as)” value with long-term potentiation (42 nM, p<0.05) is 5 min. In the series on long-term potentiation (42 nM, rat brain slices), the “High frequency stimulation-induced LTP” value is given as “completely blocks; also recorded: complete block”. Moreover, the “Basic synaptic functioning (input/output relation)” value with long-term potentiation (treated versus untreated slices) is listed as “not impaired”. In addition, in series [3] (injection into ventricle), the “Binding to cells of the ventricle walls” value was “rapid and persistent binding”; the “Cell toxicity along the ventricle wall (cell density)” value is “without obvious cell toxicity”; the “Diffusion from ependyme into underlying brain tissue” value is given as “without detectable diffusion”. In addition, the “Presence in cerebrospinal fluid after injection” value in series [3] (injection into ventricle, data not shown) is listed as “completely disappeared”. In addition, the Tissue penetration result in series [3] (intracerebral injection) is listed as “Poor tissue penetration”. Moreover, in the series on APP/Lo mice, the “RI compared with mice treated with Aβ(1-42) monomer or vehicle” value is on record as “significantly higher” and the “Short term memory for objects” value is listed as “selectively improved”.
On to `CCCCCCCCCCCC(=O)O` [lauric acid], for which the “Induction” value in series [1] was “induced”.
The same measure, in the same setting: the value for `CC/C=C\C/C=C\C/C=C\C/C=C\C/C=C\C/C=C\CCC(=O)O` [docosahexanoic acid] was “could not generate”; that for `CCCCC/C=C\C/C=C\CCCCCCCC(=O)O` [linoleic acid] was “could not generate”.
Regarding “Aβ(20-42) globulomer: truncated globulomer from Aβ(20-42) peptide or thermolysin proteolysis of Aβ(1-42) globulomer (FAEDVGSNKGAIIGLMVGGVVIA; also: globulomer (oligomeric assembly))”, in the series on APP/Lo mice, the “RI compared with mice treated with Aβ(1-42) monomer or vehicle” value is “significantly higher” and the “Short term memory for objects” value is recorded as “selectively improved”. The “Recognition index (RI)” value in the series on APP/Lo mice (second encounter, 3 hours after acquisition, P<0.01 vs chance level) is reported as “more than 50%”.
As to docosatetranoic acid, the “Induction” value in series [1] is on record as “could not generate”.
Same read-out and setting: next, `CC/C=C\C/C=C\C/C=C\C/C=C\C/C=C\CCCC(=O)O` [eicosapentanoic acid]: “created a partly shifted oligomer”.
